The NIST ThermoML archive (doi:10.1016/j.jct.2011.01.014)

Assay: xn = mol fraction of the nth substance listed
Details: 101 kPa, Liquid; for mass density: Vibrating tube method; for speed of sound: sound velocity cell

CC(=O)[O-].[NH3+]CCO [2-hydroxyethylammonium acetate] + CCO
Details | mass density [kg/m3] | speed of sound [m/s]
288.15 K, x1 = 0.0497 | 830.092 | 1219.7
288.15 K, x1 = 0.101 | 862.917 | 1257.7
288.15 K, x1 = 0.201 | 917.271 | 1327
288.15 K, x1 = 0.3009 | 964.134 | 1410
288.15 K, x1 = 0.4057 | 1005.85 | 1470.2
288.15 K, x1 = 0.4946 | 1036.29 | 1529.9
288.15 K, x1 = 0.603 | 1068.79 | 1601.6
288.15 K, x1 = 0.6765 | 1088.47 | 1646.3
288.15 K, x1 = 0.7918 | 1116.27 | 1707.9
288.15 K, x1 = 0.8825 | 1135.66 | 1756.7
288.15 K, x1 = 0.9539 | 1148.76 | 1806.7
288.15 K, x1 = 1 | 1154.7 | 1817.2
290.65 K, x1 = 0.0497 | 828.024 | 1211.3
290.65 K, x1 = 0.101 | 860.918 | 1249.6
290.65 K, x1 = 0.201 | 915.381 | 1319.3
290.65 K, x1 = 0.3009 | 962.336 | 1402.9
290.65 K, x1 = 0.4057 | 1004.14 | 1463.2
290.65 K, x1 = 0.4946 | 1034.64 | 1523
290.65 K, x1 = 0.603 | 1067.23 | 1594.9
290.65 K, x1 = 0.6765 | 1086.9 | 1639.6
290.65 K, x1 = 0.7918 | 1114.76 | 1700.5
290.65 K, x1 = 0.8825 | 1134.02 | 1749.4
290.65 K, x1 = 0.9539 | 1147.23 | 1796
290.65 K, x1 = 1 | 1153.28 | 1810
293.15 K, x1 = 0.0497 | 825.955 | 1203
293.15 K, x1 = 0.101 | 858.918 | 1241.5
293.15 K, x1 = 0.201 | 913.49 | 1311.7
293.15 K, x1 = 0.3009 | 960.535 | 1395.7
293.15 K, x1 = 0.4057 | 1002.43 | 1456.2
293.15 K, x1 = 0.4946 | 1033 | 1516.3
293.15 K, x1 = 0.603 | 1065.67 | 1588.4
293.15 K, x1 = 0.6765 | 1085.33 | 1633.2
293.15 K, x1 = 0.7918 | 1113.26 | 1693.3
293.15 K, x1 = 0.8825 | 1132.52 | 1741.7
293.15 K, x1 = 0.9539 | 1145.67 | 1786.6
293.15 K, x1 = 1 | 1151.87 | 1803.2
295.65 K, x1 = 0.0497 | 823.881 | 1194.7
295.65 K, x1 = 0.101 | 856.913 | 1233.5
295.65 K, x1 = 0.201 | 911.596 | 1304
295.65 K, x1 = 0.3009 | 958.737 | 1388.5
295.65 K, x1 = 0.4057 | 1000.73 | 1449.2
295.65 K, x1 = 0.4946 | 1031.36 | 1509.6
295.65 K, x1 = 0.603 | 1064.1 | 1582
295.65 K, x1 = 0.6765 | 1083.81 | 1626.8
295.65 K, x1 = 0.7918 | 1111.76 | 1686.5
295.65 K, x1 = 0.8825 | 1131.06 | 1734.5
295.65 K, x1 = 0.9539 | 1144.09 | 1778
295.65 K, x1 = 1 | 1150.45 | 1796.8
298.15 K, x1 = 0.0497 | 821.798 | 1186.5
298.15 K, x1 = 0.101 | 854.902 | 1225.5
298.15 K, x1 = 0.201 | 909.701 | 1296.4
298.15 K, x1 = 0.3009 | 956.936 | 1381.3
298.15 K, x1 = 0.4057 | 999.015 | 1442.3
298.15 K, x1 = 0.4946 | 1029.72 | 1502.9
298.15 K, x1 = 0.603 | 1062.53 | 1575.6
298.15 K, x1 = 0.6765 | 1082.31 | 1620.4
298.15 K, x1 = 0.7918 | 1110.26 | 1679.8
298.15 K, x1 = 0.8825 | 1129.61 | 1727.5
298.15 K, x1 = 0.9539 | 1142.5 | 1769.9
298.15 K, x1 = 1 | 1149.04 | 1790.7
300.65 K, x1 = 0.0497 | 819.712 | 1178.2
300.65 K, x1 = 0.101 | 852.887 | 1217.5
300.65 K, x1 = 0.201 | 907.8 | 1288.8
300.65 K, x1 = 0.3009 | 955.132 | 1374.2
300.65 K, x1 = 0.4057 | 997.306 | 1435.3
300.65 K, x1 = 0.4946 | 1028.07 | 1496.2
300.65 K, x1 = 0.603 | 1060.96 | 1569.2
300.65 K, x1 = 0.6765 | 1080.8 | 1614.2
300.65 K, x1 = 0.7918 | 1108.76 | 1673.3
300.65 K, x1 = 0.8825 | 1128.15 | 1720.9
300.65 K, x1 = 0.9539 | 1141.04 | 1762.4
300.65 K, x1 = 1 | 1147.63 | 1784.8
303.15 K, x1 = 0.0497 | 817.614 | 1170
303.15 K, x1 = 0.101 | 850.864 | 1209.5
303.15 K, x1 = 0.201 | 905.897 | 1281.2
303.15 K, x1 = 0.3009 | 953.327 | 1367
303.15 K, x1 = 0.4057 | 995.593 | 1428.4
303.15 K, x1 = 0.4946 | 1026.43 | 1489.6
303.15 K, x1 = 0.603 | 1059.37 | 1562.8
303.15 K, x1 = 0.6765 | 1079.28 | 1608
303.15 K, x1 = 0.7918 | 1107.26 | 1667
303.15 K, x1 = 0.8825 | 1126.69 | 1714.5
303.15 K, x1 = 0.9539 | 1139.62 | 1755.4
303.15 K, x1 = 1 | 1146.22 | 1779
305.65 K, x1 = 0.0497 | 815.509 | –
305.65 K, x1 = 0.101 | 848.835 | –
305.65 K, x1 = 0.201 | 903.988 | –
305.65 K, x1 = 0.3009 | 951.519 | –
305.65 K, x1 = 0.4057 | 993.881 | –
305.65 K, x1 = 0.4946 | 1024.78 | –
305.65 K, x1 = 0.603 | 1057.78 | –
305.65 K, x1 = 0.6765 | 1077.76 | –
305.65 K, x1 = 0.7918 | 1105.75 | –
305.65 K, x1 = 0.8825 | 1125.23 | –
305.65 K, x1 = 0.9539 | 1138.2 | –
305.65 K, x1 = 1 | 1144.8 | –
